Reference: patent US20140163048A1, “COMPOSITIONS WITH INCREASED STABILITY FOR INHIBITING TRANSIENT RECEPTOR POTENTIAL ION CHANNEL TRPA1” (Cubist Pharmaceuticals, Inc., priority 2012, published 2014)
“Also recorded” adds a separate entry of the source.

How the values were obtained:
[1] = system: TRP channels and voltage-gated ion channels; assay: Selectivity over the panel of eight tested channels; type: cell-based, human; conditions: eight channels of Table 2
Experimental: Data for TRPA1 inhibition and the selectivity of TRPA1 inhibition was obtained by this method for the compound of Formula (I) and included in Table 1 and Table 2. All currents were recorded in whole-cell configuration using EPC-9 and EPC-10 amplifiers and Patchmaster software (HEKA). […] The standard pipette solution consisted of 140 mM CsAsp, 10 mM EGTA, 10 mM HEPES, 2.27 mM MgCl2, 1.91 mM CaCl2, 4 mM MgATP, and 0.1-0.3 mM Na2GTP, with pH adjusted to 7.2 with CsOH. In addition, a solution containing 145 mM CsCl, 10 mM HEPES, 10 mM EGTA and 1 mM MgCl2 (pH 7.2 adjusted with csOH) can be used. The standard bath solution contained 150 mM NaCl, 10 mM HEPES, 10 mM glucose, 4.5 mM KCl, 1 mM EGTA, 3 mM MgCl2, with pH adjusted to 7.4 with NaOH. In some instances, 2 mM CaCl2 was added in place of EGTA and the concentration of MgCl2 was reduced to 1 mM.

[2] = system: serum chemistry biomarkers of hepatotoxicity; assay: Hepatotoxicity serum biomarker study, oral dose; type: in vivo, dogs; conditions: for serum biomarkers of hepatotoxicity (ALT, AST, ALP, GGT): dogs, 50 mg/kg PO; for ALT levels elevation: single PO dose of 50 mg/kg
Excerpt: […] 11A, showing measurements of alanine aminotranferease [ALT], aspartate aminotranferease [AST], alkaline phosphatase [ALP] and gamma-glutamyl transferase [GGT] in the dogs at each dose level (each bar represents a measurement from 1 dog in the study).

[3] = 7-day i.p. repeat dose screening toxicity study; type: in vivo, rats; conditions: 50 mg/kg/day i.p. for 7 consecutive days
Experimental: The compound of Formula (I) was evaluated in a 7-day repeat dose screening toxicity study in female rats. In order to maximize systemic exposure, rats were administered compound of Formula (I) i.p. at 50 mg/kg/day for 7 consecutive days, to obtain the results shown in FIG. 9. Clinical chemistry parameters were evaluated on Days 3 and 8. Histopathology was performed on select organs including the liver, kidney, spleen, and lung.

SMILES	selectivity for block of TRPA1 over all other tested channels [1]	serum biomarkers of hepatotoxicity (ALT, AST, ALP, GGT) [2]	histopathology of liver, kidney, spleen, lung ([3]; female rats, days 3 and 8, 50 mg/kg/day)	ALT levels elevation ([2]; female beagle dogs)	ALT levels elevation ([2]; male dogs)	serum biomarkers of hepatotoxicity ([3]; rats)
C[C@H]1CCCN1c1ncc(-c2cccc(NC(=O)Cn3cnc4c3c(=O)n(C)c(=O)n4C)n2)cn1 [Formula (I)]	at least 100 fold	did not elevate serum biomarkers of hepatotoxicity or acute phase response	No histopathological findings; also recorded: no adverse effects			
C[C@H]1CCCN1c1ccc(-c2csc(NC(=O)Cn3cnc4c3c(=O)n(C)c(=O)n4C)n2)cc1F [Formula (III)]		did elevate serum biomarkers of hepatotoxicity		up to 130 fold	up to 60 fold	did elevate serum biomarkers of hepatotoxicity
